The text below walks through data of US7459446B2, “Treatment of diabetes with copper binding compounds” (priority 1998, dated 2008).

pIC50: −log10 of the molar value. Where two headings read alike, the source gives them in different places. Marks after values point to notes of the source that are not given here.

Data set [1] has as its system streptozocin-diabetic rat (STZ rat). As to the kind of experiment: First preclinical study: intravenous streptozotocin diabetic rat, 8 months. To be noted: for Survivors at week 32 / mean weight change amongst surviving study animals: rat, in vivo; for Glucose: week 4, mean±SD; for Glucose / HbA1c: 50 mg/L in drinking water; for HbA1c: week 32, mean±SD. Type of data set: in vivo, Wistar rats.

In data set [2] the test system is fructosamine oxidase. As to the kind of experiment: fructosamine oxidase inhibition assay in human sera (ferricytochrome c, g-BSA substrate). Type of data set: biochemical. An excerpt:
The effectiveness of the inhibitor was expressed not by an equilibrium constant but by a velocity constant (K) which determined the fraction of the enzyme inhibited in a given period of time by a certain concentration of inhibitor.

Data set [3] has as its system fructosamine oxidase. The description is as above. Type of data set: biochemical. To be noted: read-out: IC50 (concentration of inhibitor causing 50% inactivation of the enzyme).
For data set [4] the following is noted: cited from earlier work; for bioavailability: oral administration.
In data set [5] the test system is streptozocin-diabetic rat (STZ rat). As to the kind of experiment: Second preclinical study: intraperitoneal streptozotocin diabetic rat, 6 months. It counts as in vivo, Wistar rats. The note with it: for Mean ± SEM weight gain: beginning to end of the 24 week period; for effect on weight gain (in words): compared with untreated STZ diabetic control rats, 6-month period; for % with cataract / No with cataract: gross cataract formation; for % with cataract / No with cataract / No with severe fibrosis: week 24; for No with severe fibrosis: gross myocardial fibrosis; for mortality rate: rat, in vivo. Further details: Mean ± SEM weight gain: unit not given here.

The conditions of data set [6]: beagle dogs, cited from earlier work.
The conditions of data set [7]: solutions exposed to light at room temperature, 24 hours; cited from earlier work.
The conditions of data set [8]: cited from earlier work.
Setting [9] is: fresh human sera, 0-1,000 μM inhibitor, 0.05 M TES buffer pH 7.4, 37° C., 5 minutes.

For the compound `O=C(O)CN(CCN(CC(=O)O)CC(=O)O)CC(=O)O` [EDTA, ethylenediamine tetraacetic acid], in data set [1], the “Survivors at week 32” value came to 5, the “mean weight change amongst surviving study animals” value was “+1.2%”, the Glucose is on record as 39.0 ± 6.04 mmol/L and the HbA1c was found to be 9.30 ± 0.63%. Further, the “K (velocity/rate constant)” value with fructosamine oxidase [2] (10.0 μM inhibitor (*)) is on record as 0.0755* min^−1. Also, the pIC50 in the data set with fructosamine oxidase [3] (pH 7.4) was 4.80. Further, in data set [4], the bioavailability entry was “less than 5%”.
As for `CC(=O)N[C@@H](CS)C(=O)O` [acetylcysteine], in data set [1], the “Survivors at week 32” value is 7, the “mean weight change amongst surviving study animals” value is on record as −8.1%, the Glucose is recorded as 37.8 ± 5.2 mmol/L and the HbA1c was 9.47 ± 1.23%. Besides, in the data set with fructosamine oxidase [2] (1.0 μM inhibitor), the “K (velocity/rate constant)” value worked out at 0.1677 min⁻¹. Further, the pIC50 with fructosamine oxidase [3] (pH 7.4) was 6.08.
Turning to `CC(=O)N[C@H](C(=O)O)C(C)(C)S` [acetylpenicillamine], in the data set with fructosamine oxidase [2] (1.0 μM inhibitor), the “K (velocity/rate constant)” value turned out to be 0.0811 min⁻¹. Further, the pIC50 in the data set with fructosamine oxidase [3] (setting [9]) is 5.97.
`N=C(N)NN` [aminoguanidine]: the “K (velocity/rate constant)” value in the data set with fructosamine oxidase [2] (10.0 μM inhibitor (*)) is on record as 0.0067* min^−1. Also, the pIC50 with fructosamine oxidase [3] (setting [9]) is 3.64.
As to `NC(CO)C(=O)NNCc1ccc(O)c(O)c1O` (centres unmarked) [benserazide], the “K (velocity/rate constant)” value with fructosamine oxidase [2] (10.0 μM inhibitor (*)) is 0.0095* min^−1. Further, the pIC50 in the data set on fructosamine oxidase [3] (setting [9]) is 4.87.
For the compound `C[C@H](CS)C(=O)N1CCC[C@H]1C(=O)O` [captopril], in the data set on fructosamine oxidase [2] (1.0 μM inhibitor), the “K (velocity/rate constant)” value worked out at 0.0259 min⁻¹. The compound also came in with a HbA1c in data set [5] (Week 4, mean±SD) of 8.5 ± 0.9. The compound also returned a HbA1c in data set [5] (Week 12, mean±SD) of 9.2 ± 1.1. In addition, in data set [5] (Week 24, mean±SD), the HbA1c was 9.4 ± 01.3. In addition, in data set [5], the “Mean ± SEM weight gain” value came to 60.7 ± 20.7, the “effect on weight gain (in words)” value is given as “ineffective”, the “% with cataract” value is on record as 25% and the No with cataract amounted to 2. Besides, in data set [5], the “No with severe fibrosis” value is on record as 6 and the mortality rate is 0%. For the same compound, the pIC50 with fructosamine oxidase [3] (pH 7.4) was 5.75. In addition, the “binding in vivo to albumin and other plasma proteins” value in data set [4] (in vivo) is given as “almost completely bound”. The bioavailability entry in data set [4] is “approximately 65%”.
With `C[C@@](Cc1ccc(O)c(O)c1)(NN)C(=O)O` [carbidopa], in data set [6] (oral), the absolute bioavailability is recorded as 88%. For the same compound, in data set [6], the biological half-life is 5 hours and the oral absorption entry is reported as “almost complete”. In the data set with fructosamine oxidase [2] (1.0 μM inhibitor), the “K (velocity/rate constant)” value was 0.1496 min⁻¹. Also, the HbA1c in data set [5] (Week 4, mean±SD) came to 9.0 ± 1.0. Moreover, the HbA1c in data set [5] (Week 12, mean±SD) is on record as 9.6 ± 0.7. The compound also gave a HbA1c in data set [5] (Week 24, mean±SD) of 9.9 ± 1.1. In addition, in data set [5], the “Mean ± SEM weight gain” value turned out to be 33.7 ± 20.4, the “effect on weight gain (in words)” value was “ineffective”, the “% with cataract” value came to 25% and the No with cataract turned out to be 2. Further, in data set [5], the “No with severe fibrosis” value was determined as 2 and the mortality rate is 0%. The pIC50 in the data set on fructosamine oxidase [3] (pH 7.4) was 6.30. The oxidative degradation in data set [7] is recorded as 50%.
Regarding `CC(=O)N(O)CCCCCNC(=O)CCC(=O)N(O)CCCCCNC(=O)CCC(=O)N(O)CCCCCN` [desferrioxamine], the “K (velocity/rate constant)” value with fructosamine oxidase [2] (10.0 μM inhibitor (*)) was 0.0109* min^−1. For the same compound, the pIC50 in the data set on fructosamine oxidase [3] (pH 7.4) is 4.39.
On to `N/N=C(\N)NN` [diaminoguanidine], for which, in the data set with fructosamine oxidase [2], the “K (velocity/rate constant)” value came to 0.1340 min⁻¹. In addition, in the data set on fructosamine oxidase [3] (pH 7.4), the pIC50 was 6.44.
In the case of `CCOC(=O)[C@H](CCc1ccccc1)N[C@@H](C)C(=O)N1CCC[C@H]1C(=O)O` [enalapril], the “K (velocity/rate constant)” value in the data set on fructosamine oxidase [2] (1.0 μM inhibitor) turned out to be 0.0326 min⁻¹. Also, the pIC50 in the data set on fructosamine oxidase [3] (setting [9]) is 5.40.
For `N[C@@H](Cc1c[nH]cn1)C(=O)O` [histidine] the same measures were 0.0554 min⁻¹ and 5.64.
In the case of `NNc1nncc2ccccc12` [hydralazine], in data set [1], the “Survivors at week 32” value turned out to be 6, the “mean weight change amongst surviving study animals” value is −11.0%, the Glucose was 35.7 ± 9.5 mmol/L and the HbA1c turned out to be 8.65 ± 1.18%. In data set [8] (man, oral administration), the bioavailability is on record as 26-55%. Besides, in data set [8] (over 24 hours after oral administration), the “drug excreted in the urine unchanged” value is 2.0-3.6%.
As for `NCCCC[C@H](N[C@@H](CCc1ccccc1)C(=O)O)C(=O)N1CCC[C@H]1C(=O)O` [lisinopril], in the data set on fructosamine oxidase [2] (1.0 μM inhibitor), the “K (velocity/rate constant)” value was 0.0174 min⁻¹. For the same compound, the pIC50 in the data set on fructosamine oxidase [3] (setting [9]) was 3.66.
For `c1cnc2c(c1)ccc1cccnc12` [o-phenathroline], in that order: 0.0385 min⁻¹ and 5.37.
For `NNC(=O)C(=O)NN` [oxalic dyhydrazide] the same measures were 0.0542 min⁻¹ and 5.80.
In the case of `NNc1ccccc1` [phenylhydrazine], in the data set with fructosamine oxidase [2], the “K (velocity/rate constant)” value stood at 0.1160 min⁻¹. Moreover, in the data set on fructosamine oxidase [3] (pH 7.4), the pIC50 was 6.09.
For `NNC(N)=O` [semicarbazide] the same measures were 0.0276* min^−1 and 4.35.
